Laboratory results: US20040091479A1, “T-cell epitope of the papillomavirus l1 and e7 protein and use thereof in diagnostics and therapy” (priority 2000, published 2004)
Where a SMILES comes first, the peptide text is derived from it.

What was measured:
[1] = tested on: CVLP-stimulated CD8-positive T cells; test: Restimulating HPV16 CVLP-stimulated T cells with BLCL presenting HPV16 peptide pools (example 14); type: cell-based, human; settings: peptide common to two reactive HPV16 pools; CD8/IFNγ
Procedure: (§1) In analogy with example 6, human T cells derived from a non-HLA-typed blood donor were stimulated with HPV16L1ΔC*E71-55 CVLPs and harvested.
The T cells were then restimulated, at 37° C. and in 100 μl of medium, with the peptide pools from example 7 and 10^5 antigen-presenting cells (donor-identical BLCL) in the presence of 10 IU of IL2/ml. Use was made, in this connection, of quantities of the peptide pools which were such that 1 μg/ml was added in the case of each individual peptide. Cells which were only incubated with buffer served as the negative control, while cells which were incubated with the HPV16 L1 or E7 peptide pool served as positive controls.
(§2) 1 μl of monensin was added after an hour. The cells were then incubated at 37° C. for a further 5 hours. After that, the cells were fixed and permeabilized and stained with α-human CD8/APC, with α-human CD4/PerCP and with α-human IFNγ/FITC. The labeling of the cells was examined in a FACScan Calibur and the results of the measurements were analyzed using Cellquest software.

[2] = tested on: CVLP-stimulated T cells (CD4-positive); test: Restimulating HPV16 CVLP-stimulated T cells with BLCL presenting HPV16 peptide pools (example 7); type: cell-based, human; settings: peptide common to two reactive HPV16 pools; CD4/IFNγ
Excerpt: as §1
The 20mer peptides P1 to 51 were assembled into peptide pools A to H and 1 to 7, respectively, in accordance with the following matrix
The T cells were then restimulated as described in example 6, fixed, permeabilized and stained. The analysis also took place as described in example 6.

[3] = tested on: peptide-stimulated CD8-positive murine T cells; test: Restimulating HPV16 L1 peptide-stimulated murine T cells with peptide-presenting JAWS cells (IFNγ FACScan); type: cell-based, C57BL/6 mice; settings: for proportion of CD8-positive T cells reactive on the basis of IFNγ expression: 1 μg peptide/ml, JAWS cells, T cells of HPV16L1ΔC*E71-55 CVLP-inoculated C57BL/6 mice, FIG. 1; for T cell epitope assignment: conclusion from FIG. 1
Procedure: Murine T cells (4×10^5) derived from HPV16L1ΔC*E71-55 CVLP-inoculated C57BL/6 mice were stimulated for 5 weeks with HPV16 L1 peptide pools at 37° C., with the weekly addition of 1 μg of each individual peptide/ml and 10^5 antigen-presenting cells (irradiated splenocytes), and harvested. The cells were subsequently restimulated, in 100 μl of medium at 37° C., with 1 μg of the peptides given on the X axis in FIG. 1/ml and 10^5 antigen-presenting cells (JAWS) in the presence of 10 IU of IL2/ml. Cells which were only incubated with buffer serve as the negative control.
After an hour, 1 μl of monensin (300 μM) was added. The cells were incubated at 37° C. for a further 5 hours. The cells were then fixed and permeabilized and stained with α-mouse CD8/PE, with α-mouse CD4/cychrome and with α-mouse interferon γ/FITC. The labeling of the cells was analyzed in a FACScan caliber and the results of the measurements were analyzed using Cellquest software.

[4] = tested on: peptide-stimulated murine CD8 T cells; test: Restimulating HPV18 peptide-stimulated murine T cells with peptide-presenting RMA cells (example 16); type: cell-based; settings: for reactive CD8-positive T cells (IFNγ, FACScan): RMA cells as antigen-presenting cells, FIG. 15; for T cell epitope assignment: conclusion from FIG. 15
Procedure: In analogy with example 5, murine T cells derived from CVLP-inoculated mice were stimulated with L1 or E7 peptide pools in the added presence of antigen-presenting cells. The cells were then restimulated with the peptides given on the X axis in FIG. 15 (Q3 and Q4 in the upper part of FIG. 15 and L1474E71-8, E72-11 and E71-8 in the lower part of FIG. 15) and also antigen-presenting cells (RMA). Cells which were only incubated with buffer served as the negative control.
The experiment was also analyzed in analogy with example 5, with the reactive CD8-positive cells being determined by means of antibody staining and FACScan.

[5] = tested on: peptide-stimulated murine CD8-positive T cells; test: Restimulating HPV18 peptide-stimulated murine T cells with peptide-presenting LKK cells (IFNγ FACScan); type: cell-based, C3H mice; settings: for proportion of CD8-positive T cells reactive on the basis of IFNγ expression: 1 μg peptide/ml, LKK cells, T cells of HPV18 CVLP-inoculated C3H mice, FIG. 3, 4; for T cell epitope assignment: conclusion from FIG. 3, 4
Procedure: Murine T cells (4×10^5) derived from C3H mice inoculated with HPV18 L1ΔCDIE71-53DI CVLPs and HPV18 L1ΔCDIE71-6ODI CVLPs were stimulated for 5 weeks with HPV18 L1 or E7 peptide pools at 37° C., with the weekly addition of 1 μg of each individual peptide/ml and 10^5 antigen-presenting cells (irradiated splenocytes), and harvested. The cells were then restimulated, at 37° C. and in 100 μl of medium, with 1 μg of the peptides given on the X axis in FIG. 3/ml and 10^5 antigen-presenting cells (LKK) in the presence of 10 IU of IL2/ml. Cells which were only incubated with buffer served as the negative control.
1 μl of monensin (300 μm) was added after an hour. The cells were incubated at 37° C. for a further 5 hours. The cells were then fixed and permeabilized and stained with α-mouse CD8/PE, with α-mouse CD4/cychrome and with α-mouse interferony/FITC. The labeling of the cells was analyzed in a FACScan Calibur and the results of the measurement were analyzed using Cellquest software.

[6] = tested on: HPV18 CVLP-stimulated human T cells; test: Restimulating HPV18 CVLP-stimulated T cells with BLCL presenting Q38, Q39, Q46 or Q47 (example 13); type: cell-based; settings: conclusion from FIG. 12 top right
Procedure: In analogy with example 6, human T cells (4×10^5) derived from a non-HLA-typed blood donor were stimulated with HPV18L1ΔCDIE71-53DI CVLPs and HPV18L1ΔCDIE71-60DI CVLPs and harvested.
The T cells were then restimulated, at 37° C. and in 100 μl of medium, with in each case 1 μg of peptide Q38, Q39, Q46 or Q47/ml and 10^5 antigen-presenting cells (donor-identical BLCL) in the presence of 10 IU of IL2/ml. Cells which were only incubated with buffer served as the negative control while cells which were incubated with the HPV18 L1 peptide pool or the E7 peptide pool served as positive controls.
as §2

YCYEQLNDSSEEEDEIDGPA [P46, HPV16 E7 23-42]
T cell epitope assignment [1]: contain a cytotoxic T cell epitope

LELINTVIQDGDMVDTGFGA [P18, HPV16 L1 188-207]
T cell epitope assignment [2]: contain a T helper epitope | proportion of CD8-positive T cells reactive on the basis of IFNγ expression [3]: brought about a restimulation | T cell epitope assignment [3]: contain H2b-restricted cytotoxic T cell epitopes

GDSLFFYLRREQMFVRHLFN [P23, HPV16 L1 243-262]
T cell epitope assignment [2]: contain a T helper epitope

NTDDYVTRTSIFYHAGSSRL [Q3, HPV18 L1 23-42]
reactive CD8-positive T cells (IFNγ, FACScan) [4]: brought about a restimulation | T cell epitope assignment [4]: contain an H2b-restricted cytotoxic T cell epitope

MSLWLPSEATVYLPPVPVSK [P1, HPV16 L1 1-20]
T cell epitope assignment [1]: contain a cytotoxic T cell epitope

MLDLQPETTDLYCYEQLNDS [P45, HPV16 E7 12-31]
T cell epitope assignment [1]: contain a cytotoxic T cell epitope

PLGRKFLLQAGMHGDTPTLH [P43, HPV16 L1 463-473 and E7 1-9]
T cell epitope assignment [1]: contain a cytotoxic T cell epitope | proportion of CD8-positive T cells reactive on the basis of IFNγ expression [3]: brought about a restimulation | T cell epitope assignment [3]: contain H2b-restricted cytotoxic T cell epitopes

PDYLQMSADPYGDSMFFCLR [Q22, HPV18 L1 232-251]
proportion of CD8-positive T cells reactive on the basis of IFNγ expression [5]: brought about a restimulation | T cell epitope assignment [5]: contain H2k-restricted cytotoxic T cell epitopes

CC[C@H](C)[C@H](NC(=O)[C@H](CCC(=O)O)NC(=O)[C@H](CC(=O)O)NC(=O)[C@H](CC(N)=O)NC(=O)[C@H](CCC(=O)O)NC(=O)[C@H](CCC(=O)O)NC(=O)[C@H](CCC(=O)O)NC(=O)[C@@H](N)CO)C(=O)N[C@@H](CC(=O)O)C(=O)NCC(=O)N[C@H](C(=O)N[C@@H](CC(N)=O)C(=O)N[C@@H](Cc1c[nH]cn1)C(=O)N[C@@H](CCC(N)=O)C(=O)N[C@@H](Cc1c[nH]cn1)C(=O)N[C@@H](CC(C)C)C(=O)N1CCC[C@H]1C(=O)N[C@@H](C)C(=O)N[C@@H](CCCNC(=N)N)C(=O)N[C@@H](CCCNC(=N)N)C(=O)O)C(C)C [Q47] (H-SEEENDEIDGVNHQHLPARR-OH; N-terminus and C-terminus assumed)
T cell epitope assignment (cytotoxic) [6]: contain cytotoxic T cell epitopes

VGNPYFRVPAGGGNKQDIPK [Q5, HPV18 L1 45-64]
proportion of CD8-positive T cells reactive on the basis of IFNγ expression [5]: brought about a restimulation | T cell epitope assignment [5]: contain H2k-restricted cytotoxic T cell epitopes

GMHGPKATL [L1474E71-8, HPV18 L1 474 and E7 1-8]
reactive CD8-positive T cells (IFNγ, FACScan) [4]: brought about a restimulation | T cell epitope assignment [4]: contain an H2b-restricted cytotoxic T cell epitope

SSADDLRAFQQLFLNTLSFV [Q51, HPV18 E7 78-97]
proportion of CD8-positive T cells reactive on the basis of IFNγ expression [5]: brought about a restimulation | T cell epitope assignment [5]: contain H2k-restricted cytotoxic T cell epitopes

YIKGSGSTANLASSNYFPTP [P26, HPV16 L1 276-295]
T cell epitope assignment [2]: contain a T helper epitope

CC[C@H](C)[C@H](NC(=O)[C@H](C)NC(=O)[C@@H](NC(=O)[C@H](CO)NC(=O)[C@H](CCC(N)=O)NC(=O)[C@@H](NC(=O)[C@H](Cc1ccccc1)NC(=O)[C@H](CCCNC(=N)N)NC(=O)[C@@H](N)Cc1ccc(O)cc1)C(C)C)C(C)C)C(=O)N[C@H](C(=O)N[C@@H](CS)C(=O)N[C@@H](CCC(N)=O)C(=O)N[C@@H](CCCCN)C(=O)N[C@@H](CC(=O)O)C(=O)N[C@@H](C)C(=O)N[C@@H](C)C(=O)N1CCC[C@H]1C(=O)N[C@@H](C)C(=O)N[C@@H](CCC(=O)O)C(=O)N[C@@H](CC(N)=O)C(=O)O)[C@@H](C)O [Q39]
T cell epitope assignment (cytotoxic) [6]: contain cytotoxic T cell epitopes

GDSMFFCLRREQLFARHFWN [Q23, HPV18 L1 243-262]
proportion of CD8-positive T cells reactive on the basis of IFNγ expression [5]: brought about a restimulation | T cell epitope assignment [5]: contain H2k-restricted cytotoxic T cell epitopes

STDEYVARTNIYYHAGTSRL [P3, HPV16 L1 23-42]
T cell epitope assignment [1]: contain a cytotoxic T cell epitope | proportion of CD8-positive T cells reactive on the basis of IFNγ expression [3]: brought about a restimulation | T cell epitope assignment [3]: contain H2b-restricted cytotoxic T cell epitopes

IFQLCKITLTADVMTYIHSM [P35, HPV16 L1 375-394]
proportion of CD8-positive T cells reactive on the basis of IFNγ expression [3]: brought about a restimulation | T cell epitope assignment [3]: contain H2b-restricted cytotoxic T cell epitopes

FYHAGSSRLLTVGNPYFRVP [Q4, HPV18 L1 34-53]
reactive CD8-positive T cells (IFNγ, FACScan) [4]: brought about a restimulation | T cell epitope assignment [4]: contain an H2b-restricted cytotoxic T cell epitope

ASSNYFPTPSGSMVTSDAQI [P27, HPV16 L1 287-306]
T cell epitope assignment [2]: contain a T helper epitope

QLCLIGCKPPIGEHWGKGSP [P15, HPV16 L1 155-174]
T cell epitope assignment [2]: contain a T helper epitope

LKKYTFWEVNLKEKFSADLD [P41, HPV16 L1 441-460]
T cell epitope assignment [1]: contain a cytotoxic T cell epitope

QPLGVGISGHPLLNKLDDTE [P11, HPV16 L1 111-130]
T cell epitope assignment [2]: contain a T helper epitope

MHGPKATL [E71-8, HPV18 E7 1-8]
reactive CD8-positive T cells (IFNγ, FACScan) [4]: brought about a restimulation | T cell epitope assignment [4]: contain an H2b-restricted cytotoxic T cell epitope

VTVVDTTRSTNNSLCAAIST [P31, HPV16 L1 331-350]
T cell epitope assignment [2]: contain a T helper epitope

NNNKILVPKVSGLQYRVFRI [P6, HPV16 L1 56-75]
T cell epitope assignment [1]: contain a cytotoxic T cell epitope

WACVGVEVGRGQPLGVGISG [P10, HPV16 L1 100-119]
T cell epitope assignment [2]: contain a T helper epitope

DMVDTGFGAMDFTTLQANKS [P19, HPV16 L1 199-218]
T cell epitope assignment [2]: contain a T helper epitope | proportion of CD8-positive T cells reactive on the basis of IFNγ expression [3]: brought about a restimulation | T cell epitope assignment [3]: contain H2b-restricted cytotoxic T cell epitopes

HGPKATLQDI [E72-11, HPV18 E7 2-11]
reactive CD8-positive T cells (IFNγ, FACScan) [4]: brought about a restimulation | T cell epitope assignment [4]: contain an H2b-restricted cytotoxic T cell epitope
